Experimental data: paper PMC5748027, “Computer-aided design of multi-target ligands at A1R, A2AR and PDE10A, key proteins in neurodegenerative diseases” (Journal of Cheminformatics, 2017)

Experiments:
[1] = molecular target: T1, A2A human adenosine receptor (A2AR) (Homo sapiens, UniProt P29274); assay: Radioligand binding competition assay, human A2A receptor in transfected HeLa cells; conditions: for % displacement at 0.1 μM (A2AR): 0.1 µM compound; for Ki: Cheng-Prusoff approximation
T1 construct: expressed in transfected cells; host or cells: HeLa
Protocol: (§1) Bioactivity testing was performed using A1 and A2A human adenosine receptors expressed in transfected CHO (A1) and HeLa (A2A) cells, as well as AD293 cells that were transiently transfected with human PDE10A. Table 1 includes the list of synthesized 4,6-substituted 2-amino-pyridin-3-carbonitriles, along with their Ki values against A1R, A2AR, and IC50 values against PDE10A.
(§2) Pharmacological evaluation was performed in a radioligand binding competition assay, using A1, A2A, A2B, and A3 human receptors expressed in transfected CHO (A1), HeLa (A2A and A3), and HEK-293 (A2B) according to the procedure reported by Bosch et al..

human PDE9A = molecular target: T2, human PDE9A (Homo sapiens, UniProt O76083); assay: Phosphodiesterase activity, AD293 cells transiently transfected with human PDE9A; format: biochemical; conditions: 10 µM compound; read-out: Percentage inhibition at 10µM (PDE9A)
T2 construct: expressed in transfected cells; host or cells: AD293 (transient transfection)
Protocol: (§3) The activity measurements against the phosphodiesterases PDE7A, PDE7B, PDE9A and PDE10A were performed using AD293 cells that were transiently and separately transfected with human PDE7A, PDE7B, PDE9A, and PDE10A following the procedure described by Shipe et al..

A3 human receptor (A3R) = molecular target: T3, A3 human receptor (A3R) (Homo sapiens, UniProt P0DMS8); assay: Radioligand binding competition assay, human A3 receptor in transfected HeLa cells; conditions: 0.1 µM compound; read-out: percentage displacement at 0.1µM (A3R)
T3 construct: expressed in transfected cells; host or cells: HeLa
T3 sequence (P0DMS8 1-318): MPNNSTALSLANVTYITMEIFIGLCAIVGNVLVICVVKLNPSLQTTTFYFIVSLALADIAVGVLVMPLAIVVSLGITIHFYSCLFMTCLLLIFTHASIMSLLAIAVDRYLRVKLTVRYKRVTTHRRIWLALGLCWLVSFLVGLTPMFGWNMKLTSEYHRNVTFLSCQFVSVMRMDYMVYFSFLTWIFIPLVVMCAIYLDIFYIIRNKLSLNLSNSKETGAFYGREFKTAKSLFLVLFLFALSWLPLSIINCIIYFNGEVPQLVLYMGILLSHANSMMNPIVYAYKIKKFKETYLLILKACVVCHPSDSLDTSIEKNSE
Protocol: as §2

human PDE7A = molecular target: T4, human PDE7A (Homo sapiens, UniProt Q13946); assay: Phosphodiesterase activity, AD293 cells transiently transfected with human PDE7A; format: biochemical; conditions: for inhibition at 10 µM: 10 µM compound, read-out: Percentage inhibition at 10µM (PDE7A)
T4 construct: expressed in transfected cells; host or cells: AD293 (transient transfection)
Protocol: as §3

human PDE10A = molecular target: T5, human PDE10A (Homo sapiens, UniProt Q9Y233); assay: Phosphodiesterase activity, AD293 cells transiently transfected with human PDE10A; format: biochemical; conditions: for IC50: mean of 3 experiments in duplicate; for inhibition at 10 µM: read-out: % inhibition at 10 μM (PDE10A), 10 μM compound
T5 construct: expressed in transfected cells; host or cells: AD293 (transient transfection)
Protocol: as §1, §3

human PDE7B = molecular target: T6, human PDE7B (Homo sapiens, UniProt Q9NP56); assay: Phosphodiesterase activity, AD293 cells transiently transfected with human PDE7B; format: biochemical; conditions: for inhibition at 10 µM: 10 µM compound, read-out: Percentage inhibition at 10µM (PDE7B)
T6 construct: expressed in transfected cells; host or cells: AD293 (transient transfection)
Protocol: as §3

[2] = molecular target: T7, A1 human adenosine receptor (A1R) (Homo sapiens, UniProt P30542); assay: Radioligand binding competition assay, human A1 receptor in transfected CHO cells; conditions: for inhibition at 0.1 µM: 0.1 µM compound, read-out: % displacement at 0.1 μM (A1R); for Ki: Cheng-Prusoff approximation
T7 construct: expressed in transfected cells; host or cells: CHO
T7 sequence (P30542 1-326): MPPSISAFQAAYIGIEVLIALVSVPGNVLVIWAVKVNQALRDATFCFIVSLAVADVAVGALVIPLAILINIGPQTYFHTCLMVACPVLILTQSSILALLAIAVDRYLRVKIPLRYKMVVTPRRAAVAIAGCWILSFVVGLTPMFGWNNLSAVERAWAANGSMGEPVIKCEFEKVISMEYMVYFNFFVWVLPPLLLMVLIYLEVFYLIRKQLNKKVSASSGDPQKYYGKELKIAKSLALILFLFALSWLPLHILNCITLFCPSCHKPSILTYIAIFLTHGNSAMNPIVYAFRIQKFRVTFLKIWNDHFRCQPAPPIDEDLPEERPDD
Protocol: Pharmacological evaluation was performed in a radioligand binding competition assay, using A1, A2A, A2B, and A3 human receptors expressed in transfected CHO (A1), HeLa (A2A and A3), and HEK-293 (A2B) according to the procedure reported by Bosch et al. [78].

[3] = molecular target: T8, A2B human receptor (A2BR) (Homo sapiens, UniProt P29275); assay: Radioligand binding competition assay, human A2B receptor in transfected HEK-293 cells; conditions: 0.1 µM compound; read-out: percentage displacement at 0.1µM (A2BR)
T8 construct: expressed in transfected cells; host or cells: HEK-293
T8 sequence (P29275 1-332): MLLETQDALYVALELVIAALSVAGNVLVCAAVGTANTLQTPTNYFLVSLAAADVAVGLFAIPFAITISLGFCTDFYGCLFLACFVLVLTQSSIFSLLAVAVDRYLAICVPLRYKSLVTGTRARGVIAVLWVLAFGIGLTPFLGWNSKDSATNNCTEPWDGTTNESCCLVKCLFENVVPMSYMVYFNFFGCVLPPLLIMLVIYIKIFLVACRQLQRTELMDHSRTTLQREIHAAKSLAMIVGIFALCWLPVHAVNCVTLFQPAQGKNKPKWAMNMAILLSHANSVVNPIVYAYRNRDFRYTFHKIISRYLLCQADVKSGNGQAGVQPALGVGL
Protocol: as §2

T1 sequence (P29274 whole entry): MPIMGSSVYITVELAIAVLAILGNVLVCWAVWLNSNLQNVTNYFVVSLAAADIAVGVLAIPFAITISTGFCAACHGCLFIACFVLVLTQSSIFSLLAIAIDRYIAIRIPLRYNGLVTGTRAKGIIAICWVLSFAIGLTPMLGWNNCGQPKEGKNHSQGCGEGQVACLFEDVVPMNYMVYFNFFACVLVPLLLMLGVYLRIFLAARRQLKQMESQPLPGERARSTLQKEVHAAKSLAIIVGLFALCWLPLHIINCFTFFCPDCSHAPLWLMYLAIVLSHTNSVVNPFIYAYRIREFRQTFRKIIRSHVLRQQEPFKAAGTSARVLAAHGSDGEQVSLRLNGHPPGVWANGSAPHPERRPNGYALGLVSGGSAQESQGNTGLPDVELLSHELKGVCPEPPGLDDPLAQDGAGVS
T5 sequence (Q9Y233 267-1055 limits assumed): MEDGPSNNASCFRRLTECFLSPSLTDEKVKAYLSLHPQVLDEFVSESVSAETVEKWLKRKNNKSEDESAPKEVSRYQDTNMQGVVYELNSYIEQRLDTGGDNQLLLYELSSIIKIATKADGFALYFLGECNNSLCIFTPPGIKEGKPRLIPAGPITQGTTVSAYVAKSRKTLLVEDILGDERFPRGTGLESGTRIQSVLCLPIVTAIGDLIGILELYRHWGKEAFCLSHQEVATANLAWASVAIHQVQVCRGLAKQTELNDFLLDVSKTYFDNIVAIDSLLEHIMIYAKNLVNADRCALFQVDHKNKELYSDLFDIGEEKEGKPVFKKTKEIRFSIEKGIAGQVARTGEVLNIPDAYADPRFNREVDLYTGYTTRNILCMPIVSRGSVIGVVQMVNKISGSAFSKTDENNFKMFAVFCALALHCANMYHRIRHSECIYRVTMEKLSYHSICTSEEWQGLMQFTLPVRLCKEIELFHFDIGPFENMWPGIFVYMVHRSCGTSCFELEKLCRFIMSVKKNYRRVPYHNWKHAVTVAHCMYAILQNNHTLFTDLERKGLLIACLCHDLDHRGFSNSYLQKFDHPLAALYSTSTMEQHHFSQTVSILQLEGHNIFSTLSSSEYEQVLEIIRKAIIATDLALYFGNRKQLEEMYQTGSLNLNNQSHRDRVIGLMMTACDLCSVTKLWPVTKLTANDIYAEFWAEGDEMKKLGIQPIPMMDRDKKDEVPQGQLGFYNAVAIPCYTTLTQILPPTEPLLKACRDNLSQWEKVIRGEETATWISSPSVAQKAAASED
T4 sequence (Q13946 whole entry): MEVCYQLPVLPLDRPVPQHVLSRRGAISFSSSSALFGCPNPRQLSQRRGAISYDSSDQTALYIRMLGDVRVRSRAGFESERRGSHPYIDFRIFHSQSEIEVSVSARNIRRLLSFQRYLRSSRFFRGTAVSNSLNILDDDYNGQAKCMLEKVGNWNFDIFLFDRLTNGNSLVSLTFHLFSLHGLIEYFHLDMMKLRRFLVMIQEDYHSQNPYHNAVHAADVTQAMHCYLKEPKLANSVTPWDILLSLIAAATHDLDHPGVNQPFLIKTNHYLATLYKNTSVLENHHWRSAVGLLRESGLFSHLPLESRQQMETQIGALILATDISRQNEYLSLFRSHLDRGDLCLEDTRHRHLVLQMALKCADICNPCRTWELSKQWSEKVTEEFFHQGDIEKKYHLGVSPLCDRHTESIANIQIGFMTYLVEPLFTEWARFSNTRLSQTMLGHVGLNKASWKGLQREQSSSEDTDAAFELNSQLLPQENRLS
T2 sequence (O76083 whole entry): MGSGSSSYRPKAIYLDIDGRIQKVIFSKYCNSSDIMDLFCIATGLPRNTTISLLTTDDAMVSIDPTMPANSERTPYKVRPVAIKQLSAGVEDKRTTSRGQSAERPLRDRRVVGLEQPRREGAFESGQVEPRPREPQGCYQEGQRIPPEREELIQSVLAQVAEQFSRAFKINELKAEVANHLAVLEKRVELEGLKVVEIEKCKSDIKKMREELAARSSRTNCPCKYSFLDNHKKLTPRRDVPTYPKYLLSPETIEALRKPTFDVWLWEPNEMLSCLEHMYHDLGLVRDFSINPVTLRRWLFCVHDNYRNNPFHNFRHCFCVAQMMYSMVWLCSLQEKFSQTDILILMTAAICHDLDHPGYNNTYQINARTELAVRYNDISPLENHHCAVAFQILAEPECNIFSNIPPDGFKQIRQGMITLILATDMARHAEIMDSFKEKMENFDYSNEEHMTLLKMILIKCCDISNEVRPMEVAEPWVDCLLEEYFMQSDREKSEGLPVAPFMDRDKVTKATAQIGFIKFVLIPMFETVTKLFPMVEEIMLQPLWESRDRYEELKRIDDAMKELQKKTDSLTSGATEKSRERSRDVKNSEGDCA
T6 sequence (Q9NP56 whole entry): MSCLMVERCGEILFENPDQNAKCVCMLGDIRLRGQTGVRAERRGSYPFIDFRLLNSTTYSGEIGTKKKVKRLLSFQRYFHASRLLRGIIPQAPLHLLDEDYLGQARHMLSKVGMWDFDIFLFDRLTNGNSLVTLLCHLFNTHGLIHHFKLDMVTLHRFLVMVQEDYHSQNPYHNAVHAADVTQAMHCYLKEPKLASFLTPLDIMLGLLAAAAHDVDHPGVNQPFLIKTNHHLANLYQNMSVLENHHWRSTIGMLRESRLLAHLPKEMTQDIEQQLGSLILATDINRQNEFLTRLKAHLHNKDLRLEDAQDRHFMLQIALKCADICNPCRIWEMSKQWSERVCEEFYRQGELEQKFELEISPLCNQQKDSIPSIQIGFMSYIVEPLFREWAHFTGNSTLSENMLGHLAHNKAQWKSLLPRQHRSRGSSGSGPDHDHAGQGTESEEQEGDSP

Structure (SMILES) | % displacement at 0.1 μM (A2AR) [1] [%] | inhibition at 10 µM (human PDE9A) [%] | inhibition at 0.1 µM (A3 human receptor (A3R)) [%] | inhibition at 10 µM (human PDE7A) [%] | IC50 (human PDE10A) [nM] | inhibition at 10 µM (human PDE7B) [%] | inhibition at 0.1 µM [2] [%] | melting point [°C] | inhibition at 0.1 µM [3] [%] | inhibition at 10 µM (human PDE10A) [%] | Ki [2] [nM] | Ki [1] [nM] | IC50 (human PDE7A) [nM] | IC50 (human PDE7B) [nM] | selectivity over all tested off-targets (human PDE10A; PDE10A IC50 versus lowest selectivity at PDE7B (55% inhibition at 10 µM))
N#Cc1c(-c2ccc(O)cc2)cc(-c2ccc(O)cc2)nc1N [Compound 24, 2-amino-4,6-bis(4-hydroxyphenyl)pyridine-3-carbo-nitrile] | 7 | 7 | 1 | 47 | 3100 ± 400 | 38 | 19 | 299 to 300 | 1 |  |  |  |  |  | 
N#Cc1c(-c2ccccc2Cl)cc(-c2ccc(O)cc2)nc1N [Compound 23, 2-amino-4-(2-chlorophenyl)-6-(4-hydroxyphenyl)pyridine-3-carbonitrile] | 10 | 25 | 1 |  | 4000 ± 300 |  | 2 | 215 to 217 | 8 |  |  |  | 1800 | 7300 | 
COc1ccccc1-c1cc(-c2ccccc2F)nc(N)c1C#N [Compound 19, 2-amino-6-(2-fluorophenyl)-4-(2-methoxyphenyl)pyridine-3-carbonitrile] |  | 19 | 1 | 49 |  | 42 | 58 | 187 to 188 | 2 | 73 |  | 338 ± 12 |  |  | 
N#Cc1c(-c2ccccc2F)cc(-c2ccccc2F)nc1N [Compound 18, 2-amino-4,6-bis(2-fluorophenyl)pyridine-3-carbonitrile] |  | 0 | 1 | 25 |  | 36 |  | 180 to 181 | 1 | 38 | 78 ± 5 | 948 ± 13 |  |  | 

More lines, now with the values ahead:

% displacement at 0.1 μM (A2AR) [1] [%] | inhibition at 10 µM (human PDE9A) [%] | inhibition at 0.1 µM (A3 human receptor (A3R)) [%] | inhibition at 10 µM (human PDE7A) [%] | IC50 (human PDE10A) [nM] | inhibition at 10 µM (human PDE7B) [%] | inhibition at 0.1 µM [2] [%] | melting point [°C] | inhibition at 0.1 µM [3] [%] | inhibition at 10 µM (human PDE10A) [%] | Ki [2] [nM] | Ki [1] [nM] | IC50 (human PDE7A) [nM] | IC50 (human PDE7B) [nM] | selectivity over all tested off-targets (human PDE10A; PDE10A IC50 versus lowest selectivity at PDE7B (55% inhibition at 10 µM)) | Structure (SMILES)
5 | 19 | 2 | 22 |  | 8 |  | 220 to 221 | 1 | 17 | 25 ± 2 |  |  |  |  | N#Cc1c(-c2ccc3c(c2)OCO3)cc(-c2ccccc2)nc1N [Compound 7, 2-amino-4-(2H-1,3-benzodioxol-5-yl)-6-phenylpyridine-3-carbonitrile]
 | 4 | 19 | 44 |  | 41 |  | 177 to 178 | 3 | 55 | 70 ± 3 | 49 ± 4 |  |  |  | N#Cc1c(C2CCCCC2)cc(-c2ccco2)nc1N [Compound 13, 2-amino-4-cyclohexyl-6-(furan-2-yl)pyridine-3-carbonitrile]
50 | 30 | 13 | 26 | 2400 ± 200 | 55 |  | 125 to 126 | 1 |  | 294 ± 10 |  |  |  | twofold | N#Cc1c(C2CCCCC2)cc(-c2ccccc2)nc1N [Compound 8, 2-amino-4-cyclohexyl-6-phenylpyridine-3-carbonitrile]
11 | 6 | 26 | 33 | 1200 ± 100 | 45 | 16 | 160 to 162 | 1 |  |  |  |  |  |  | N#Cc1c(C2CCCCC2)cc(-c2cccs2)nc1N [Compound 11, 2-amino-4-cyclohexyl-6-(thiophen-2-yl)pyridine-3-carbonitrile]
8 | 5 | 6 | 24 | 2000 ± 200 | 36 | 12 | 154 to 156 | 3 |  |  |  |  |  |  | N#Cc1c(-c2ccccc2)cc(-c2nccs2)nc1N [Compound 3, 2-amino-4-phenyl-6-(1,3-thiazol-2-yl)pyridine-3-carbonitrile]
